Measurements: the NIST ThermoML archive (doi:10.1021/acs.jced.6b00695)
± gives the expanded uncertainty stated by the source.

Test: mn = molality of the nth substance listed, in mol/kg
Settings: for surface tension liquid-gas: Capillary rise; for viscosity / speed of sound / mass density: 100 kPa, Liquid; for viscosity: Capillary tube (Ostwald / Ubbelohde) method; for speed of sound: Sing-around technique in a fixed-path interferometer; for mass density: Vibrating tube method

Structure (SMILES): OC[C@H]1O[C@@](CO)(O[C@H]2O[C@H](CO)[C@@H](O)[C@H](O)[C@H]2O)[C@@H](O)[C@@H]1O [D-sucrose] + O
- surface tension liquid-gas (298.15 K, m1 = 1.27): 42.79 ± 0.7 mN/m
- viscosity (298.15 K, m1 = 1.27): 2.727 ± 0.018 mPa·s
- speed of sound (298.15 K, m1 = 1.27): 1607.8 ± 1.1 m/s
- mass density (298.15 K, m1 = 1.27): 1127.29 ± 0.25 kg/m3
- surface tension liquid-gas (303.15 K, m1 = 1.27): 42.13 ± 0.7 mN/m
- viscosity (303.15 K, m1 = 1.27): 2.386 ± 0.016 mPa·s
- speed of sound (303.15 K, m1 = 1.27): 1615.4 ± 1.1 m/s
- mass density (303.15 K, m1 = 1.27): 1125.29 ± 0.25 kg/m3
- surface tension liquid-gas (308.15 K, m1 = 1.27): 40.87 ± 0.7 mN/m
- viscosity (308.15 K, m1 = 1.27): 2.085 ± 0.014 mPa·s
- speed of sound (308.15 K, m1 = 1.27): 1621.8 ± 1.1 m/s
- mass density (308.15 K, m1 = 1.27): 1123.11 ± 0.25 kg/m3

Structure (SMILES): O=C(O)CC(O)(CC(=O)O)C(=O)O [citric acid] + O
- surface tension liquid-gas (298.15 K, m1 = 0.005): 71.6 ± 0.69 mN/m
- viscosity (298.15 K, m1 = 0.005): 0.9011 ± 0.0069 mPa·s
- speed of sound (298.15 K, m1 = 0.005): 1494.6 ± 0.86 m/s
- mass density (298.15 K, m1 = 0.005): 997.455 ± 0.05 kg/m3
- surface tension liquid-gas (303.15 K, m1 = 0.005): 70.84 ± 0.69 mN/m
- viscosity (303.15 K, m1 = 0.005): 0.8009 ± 0.0066 mPa·s
- speed of sound (303.15 K, m1 = 0.005): 1504.7 ± 0.86 m/s
- mass density (303.15 K, m1 = 0.005): 996.059 ± 0.045 kg/m3
- surface tension liquid-gas (308.15 K, m1 = 0.005): 70.06 ± 0.69 mN/m
- viscosity (308.15 K, m1 = 0.005): 0.7225 ± 0.0063 mPa·s
- speed of sound (308.15 K, m1 = 0.005): 1516.2 ± 0.87 m/s
- mass density (308.15 K, m1 = 0.005): 994.427 ± 0.051 kg/m3

Structure (SMILES): [Cl][Dy]([Cl])[Cl] [dysprosium(III) chloride] + O
- mass density (298.15 K, m1 = 0.005): 998.006 ± 0.05 kg/m3

Structure (SMILES): [Cl][Er]([Cl])[Cl] [erbium trichloride] + O
- mass density (298.15 K, m1 = 0.005): 998.051 ± 0.05 kg/m3

Structure (SMILES): [Cl][Yb]([Cl])[Cl] [ytterbium trichloride] + O
- mass density (298.15 K, m1 = 0.005): 998.121 ± 0.05 kg/m3
